Reference: the Deep4Chem optical property database

Assay: solvent given as SMILES
[1] = in O=P(c1ccccc1)(c1ccccc1)c1ccccc1Oc1ccccc1P(=O)(c1ccccc1)c1ccccc1
[2] = in c1cc(-c2cccc(-n3c4ccccc4c4ccccc43)c2)cc(-n2c3ccccc3c3ccccc32)c1

SMILES: COc1ccc2c3c(c4ccc(C(C)(C)C)cc4c2c1)=C(c1cc(OC)c(OC)c(OC)c1)C1=Nc2c(-c4cc(OC)c(OC)c(OC)c4)c4c5ccc(C(C)(C)C)cc5c5cc(OC)ccc5c4n2[B-](F)(F)[N+]=31
- emission maximum (in Cc1ccccc1): 810 nm

SMILES: CC1(C)CC(=O)c2c(F)c(F)cc(F)c2N1
- emission maximum (in CC#N): 459 nm
- emission maximum (in CCO): 499 nm

SMILES: COc1ccc(-c2nnc(-c3cc(-c4nnc(-c5ccc(OC)cc5)o4)c(-n4c5ccccc5c5ccccc54)cc3-n3c4ccccc4c4ccccc43)o2)cc1
- emission maximum (in Cc1ccccc1): 428 nm
- emission maximum [1]: 452 nm

SMILES: C[C@]12SC(=O)C=C1c1nc(-c3ccc(Cl)cc3)[nH]c1C1=CC(=O)S[C@@]12C
- emission maximum (in CC#N): 509 nm

SMILES: CC(C)(C)c1ccc2c(c1)c1cc(C(C)(C)C)ccc1n2-c1ccc(-c2ccc3c(c2)C(=O)c2ccc(-c4ccc(-n5c6ccc(C(C)(C)C)cc6c6cc(C(C)(C)C)ccc65)cc4)cc2C3=O)cc1
- emission maximum (in Cc1ccccc1): 558 nm
- emission maximum (in c1ccc2c(c1)c1ccccc1n2-c1ccc(-c2ccc(-n3c4ccccc4c4ccccc43)cc2)cc1): 550 nm

SMILES: Cc1ccc(-c2cc(C)[o+]c(C)c2)cc1
- emission maximum (in CC#N): 435 nm
- emission maximum (in ClCCl): 417 nm

SMILES: c1ccc(-c2ccc3c4ccc(-c5ccccc5)c5c(-c6ccccc6)ccc(c6cccc2c63)c54)cc1
- emission maximum (in ClCCl): 500 nm

SMILES: COc1ccc(C2=C(c3ccc(OC)cc3)c3cccc4c3c(cc3nc5ccccc5nc34)O2)cc1
- emission maximum (in ClCCl): 572 nm

SMILES: CC1(C)c2ccccc2N(c2ccc(-c3cc(C#N)c(C#N)cc3-c3ccc(N4c5ccccc5C(C)(C)c5ccccc54)cc3)cc2)c2ccccc21
- emission maximum (in Cc1ccccc1): 532 nm
- emission maximum [2]: 499 nm

SMILES: O=C1c2ccccc2C2=Nc3cccc4cccc(c34)N12
- emission maximum (in ClCCl): 596 nm

SMILES: CCCCCCCCN1c2ccc(C#Cc3cc(C(F)(F)F)cc(C(F)(F)F)c3)cc2Sc2cc(C=O)ccc21
- emission maximum (in C1CCOC1): 514 nm
- emission maximum (in CC#N): 532 nm
- emission maximum (in CCCCCC): 491 nm
- emission maximum (in CO): 517 nm
- emission maximum (in CS(C)=O): 540 nm
- emission maximum (in Cc1ccccc1): 508 nm
- emission maximum (in ClC(Cl)Cl): 529 nm

SMILES: CCCCC(CC)COc1cc(OCC(CC)CCCC)c2c#cc3ccc4sc5ccc(c#cc6cc(c#cc7ccc8sc9ccc(c#cc1c2)cc9c8c7)c(C(CCCC)OCCC)cc6C(CCCC)OCCC)cc5c4c3 (stereo unspecified)
- emission maximum (in ClCCl): 377 nm

SMILES: COCCOCCOCCOCC(COCCOCCOCCOC)Oc1cc(/C=C/c2ccc(C=C(C#N)C#N)cc2)c(OC(COCCOCCOCCOC)COCCOCCOCCOC)cc1/C=C/c1ccc(C=C(C#N)C#N)cc1
- emission maximum (in ClCCl): 596 nm

SMILES: Cc1ccc(C)n1-c1cccc(C#N)c1
- emission maximum (in C1CCOC1): 481 nm
- emission maximum (in CCCCCC): 403 nm
- emission maximum (in CCCCCl): 477 nm
- emission maximum (in CCOCC): 444 nm
- emission maximum (in ClCCl): 504 nm

SMILES: C=C(C)C(CN1C(=O)c2cccc3c2c(cc2oc(C)nc23)C1=O)OO (stereo unspecified)
- emission maximum (in CCO): 416 nm

SMILES: O=C(c1ccc(-n2c3ccccc3c3ccccc32)cc1)c1ccc(-n2c3ccccc3c3ccccc32)cc1
- emission maximum (in Cc1ccccc1): 438 nm
- emission maximum [1]: 444 nm

SMILES: CCn1c2ccsc2c2c3nsnc3c3c4sccc4n(CC)c3c21
- emission maximum (in C1CCOC1): 539 nm
- emission maximum (in CCOC(C)=O): 538 nm
- emission maximum (in CN(C)C=O): 573 nm
- emission maximum (in Cc1ccccc1): 523 nm
- emission maximum (in ClCCl): 565 nm

SMILES: COc1ccc(C2=C3C(/C=C/c4cc(OC)c(OC)c(OC)c4)=C(C=O)C(C)=[N+]3[B-](F)(F)n3c(/C=C/c4cc(OC)c(OC)c(OC)c4)c(C=O)c(C=Cc4cc(OC)c(OC)c(OC)c4)c32)cc1
- emission maximum (in ClCCl): 686 nm

SMILES: Cc1ccc(-c2sc(/C(C#N)=C/c3ccc(C#N)cc3)nc2-c2ccc(Cl)cc2)cc1
- emission maximum (in CC#N): 535 nm

SMILES: O=c1c2cc3[nH]c4c(S(=O)(=O)O)cc(S(=O)(=O)O)cc4c(=O)c3cc2[nH]c2c(S(=O)(=O)O)cc(S(=O)(=O)O)cc12
- emission maximum (in O): 550 nm

SMILES: CCc1ccc2ccc(-c3ccccc3)nn12
- emission maximum (in CCCCCC): 495 nm

SMILES: CC1=[N+]2C(=C(c3ccc(N(C)C)cc3)c3ccc(C)n3[B-]2(F)F)C=C1
- emission maximum (in C1CCCCC1): 518 nm
- emission maximum (in C1CCOC1): 517 nm
- emission maximum (in CC#N): 511 nm
- emission maximum (in CC(=O)C(C)(C)C): 512 nm
- emission maximum (in CC(C)=O): 515 nm
- emission maximum (in CCCCCC): 519 nm
- emission maximum (in CCOC(C)=O): 513 nm
- emission maximum (in CO): 511 nm
- emission maximum (in Cc1ccccc1): 580 nm
- emission maximum (in ClC(Cl)Cl): 615 nm

SMILES: CCN(CC)c1ccc2cc(/C=C/C(=C(C#N)C#N)c3ccc4c(c3)c3ccccc3n4CC)c(=O)oc2c1
- emission maximum (in CC(C)=O): 614 nm
- emission maximum (in CCOC(C)=O): 590 nm
- emission maximum (in CN(C)C=O): 629 nm
- emission maximum (in CS(C)=O): 638 nm
- emission maximum (in Cc1ccccc1): 571 nm
- emission maximum (in ClCCl): 604 nm

SMILES: C1=C(c2ccccc2)S[C@]23C1=C(c1ccccc1)[C@H](c1ccccc12)c1ccccc13
- emission maximum (in ClCCl): 491 nm

SMILES: C(=C(c1ccccc1)c1ccccc1)c1ccc(-c2cc(-c3ccc(C=C(c4ccccc4)c4ccccc4)cc3)cc(-c3ccc(C=C(c4ccccc4)c4ccccc4)cc3)c2)cc1
- emission maximum (in C1CCOC1): 446 nm

SMILES: COc1ccc(/C=C2\OC(=O)c3cc(N)ccc32)cc1
- emission maximum (in CC#N): 450.25 nm
- emission maximum (in CC(C)=O): 446.03 nm
- emission maximum (in CC(C)CO): 474.83 nm
- emission maximum (in CC(C)O): 481.23 nm
- emission maximum (in CCCO): 482.63 nm
- emission maximum (in CCO): 485.44 nm
- emission maximum (in CCOC(C)=O): 445.04 nm
- emission maximum (in CCOCC): 443.26 nm
- emission maximum (in CO): 486.14 nm

SMILES: CCNc1cc2c(cc1C)C(c1ccccc1C(=O)O)=C1CCCC(/C=C/C3=[N+](C)c4ccccc4C3(C)C)=C1O2
- emission maximum (in CC#N): 728 nm
- emission maximum (in CCO): 721 nm
- emission maximum (in CO): 720 nm
- emission maximum (in ClC(Cl)Cl): 722 nm

SMILES: C(=C\c1cnc2ccccc2n1)/c1ccc(N(c2ccccc2)c2ccccc2)cc1
- emission maximum (in C1CCOC1): 535 nm
- emission maximum (in CC#N): 596 nm
- emission maximum (in CCCCCCC): 461 nm
- emission maximum (in CS(C)=O): 598 nm
- emission maximum (in ClCCl): 565 nm

SMILES: CC(C)(C)OC(=O)CN1CCN(c2ccc3c(-c4ccc(I)cc4)c4ccc(=[N+]5CCN(CC(=O)OC(C)(C)C)CC5)cc-4oc3c2)CC1
- emission maximum (in ClCCl): 586 nm

SMILES: CCCCCCCCCCCCOc1ccc(C#CC(C#Cc2ccc(OCCCCCCCCCCCC)cc2)=Cc2cc(C=C(C#Cc3ccc(OCCCCCCCCCCCC)cc3)C#Cc3ccc(OCCCCCCCCCCCC)cc3)cc(C=C(C#Cc3ccc(OCCCCCCCCCCCC)cc3)C#Cc3ccc(OCCCCCCCCCCCC)cc3)c2)cc1
- emission maximum (in CCOC(C)=O): 428 nm

SMILES: CN(C)c1ccc(/C=C/c2nc3c4ccccc4c4ccccc4c3[nH]2)cc1
- emission maximum (in C1CCOC1): 463 nm
- emission maximum (in C1COCCO1): 436 nm
- emission maximum (in CC1CCCCC1): 430 nm
- emission maximum (in CC#N): 476 nm
- emission maximum (in CCOC(C)=O): 460 nm
- emission maximum (in CCOCC): 448 nm
- emission maximum (in CN(C)C=O): 478 nm
- emission maximum (in COC(C)=O): 471 nm
- emission maximum (in CS(C)=O): 480 nm
- emission maximum (in Cc1ccccc1): 436 nm
- emission maximum (in ClC(Cl)Cl): 467 nm

SMILES: Cc1ccc(-c2c3ccc([nH]3)c3nc(c(-c4ccc(C#N)cc4)c4ccc([nH]4)c4ccc([nH]4)c(-c4ccc(C)cc4)c4ccc2o4)C=C3)cc1
- emission maximum (in C1CCOC1): 730 nm
- emission maximum (in Cc1ccccc1): 722 nm
- emission maximum (in c1ccccc1): 722 nm

SMILES: CO[Si](c1c2ccccc2cc2ccccc12)(c1c2ccccc2cc2ccccc12)c1c2ccccc2cc2ccccc12
- emission maximum (in ClC(Cl)Cl): 439 nm

SMILES: CCN(CC)c1ccc2c(-c3ccccc3C(=O)O)c3c([o+]c2c1)/C(=C/c1ccc(N(C)C)cc1)CCC3
- emission maximum (in ClCCl): 757 nm

SMILES: CCN(CC)c1ccc(/N=N/c2nc3ccc(OC)cc3s2)cc1
- emission maximum (in CC#N): 583 nm
- emission maximum (in ClCCl): 574 nm

SMILES: O=Cc1cnc(-c2c3ccccc3cc3ccccc23)nc1
- emission maximum (in CCO): 438 nm
- emission maximum (in ClCCl): 531 nm

SMILES: CCCCCCC1(CCCCCC)c2ccccc2-c2ccc(-c3ccc(-c4cc(-c5ccccn5)nc(-c5ccccn5)c4)cc3)cc21
- emission maximum (in ClCCl): 409 nm

SMILES: COc1cc(/C=C/c2ncc(-c3ccncc3)o2)cc(OC)c1OC
- emission maximum (in ClCCl): 463 nm

SMILES: CC(C)c1cccc(C(C)C)c1N1C(c2ccccc2)=Cc2ccc3ccccc3[n+]2[B-]1(F)F
- emission maximum (in ClCCl): 472 nm

SMILES: CCOC(=O)c1c(-c2cc3ccccc3oc2=O)nn(-c2ccccc2)c1C(=O)OCC
- emission maximum (in ClCCl): 401 nm

SMILES: CC(C)=CCN1C(=O)c2cccc3c2c(cc2nc(C)oc23)C1=O
- emission maximum (in CCO): 412 nm

SMILES: O=C1c2cccc3cc4ccccc4c(c23)C(=O)N1Cc1ccccn1
- emission maximum (in C1CCOC1): 485 nm
- emission maximum (in CCCCCC): 465 nm
- emission maximum (in CCO): 500 nm
- emission maximum (in Cc1ccccc1): 483 nm
- emission maximum (in ClCCl): 490 nm

SMILES: c1ccc(-c2nc(-c3ccccc3)nc(-c3ccc(-c4ccc5c(c4)[Si](c4ccccc4)(c4ccccc4)c4cc(-c6ccc(-c7nc(-c8ccccc8)nc(-c8ccccc8)n7)cc6)ccc4N5c4ccccc4)cc3)n2)cc1
- emission maximum [2]: 459 nm

SMILES: C(=C\c1nc2ccccc2[nH]1)/c1ccc(-c2nc3c4cccnc4c4ncccc4c3[nH]2)cc1
- emission maximum (in C1CCOC1): 444 nm
- emission maximum (in CC#N): 450 nm
- emission maximum (in CO): 452 nm
- emission maximum (in ClCCl): 447 nm

SMILES: F[B-]1(F)OC(c2ccc3c(c2)Cc2ccccc2-3)=CC(c2ccccc2)=[O+]1
- emission maximum (in CC#N): 491 nm

SMILES: Cc1ccc2c(c1)nc1c(=O)n(C)c(=O)nc-1n2C
- emission maximum (in CC#N): 532 nm

SMILES: OCC1O[C@@H](Cc2cc(O)cc(/C=C/c3ccc(O)c(O)c3)c2)[C@H](O)[C@@H](O)[C@@H]1O (stereo partly specified)
- emission maximum (in C1CCOC1): 375 nm
- emission maximum (in C1COCCO1): 370 nm
- emission maximum (in CC#N): 387 nm
- emission maximum (in CC(C)=O): 376 nm
- emission maximum (in CCCCO): 385 nm
- emission maximum (in CCCO): 386 nm
- emission maximum (in CCO): 390 nm
- emission maximum (in CCOC(C)=O): 372 nm
- emission maximum (in CCOCC): 372 nm
- emission maximum (in CN(C)C=O): 378 nm
- emission maximum (in CO): 394 nm
- emission maximum (in CS(C)=O): 381 nm
- emission maximum (in Cc1ccccc1): 371 nm
- emission maximum (in ClC(Cl)Cl): 373 nm
- emission maximum (in O): 403 nm
